From paper PMC3615411 (Cancer research, 2008)

Target: E2F4 (Mus musculus, UniProt Q8R0K9)
Test: EMSA of E2F4 DNA binding with compound added to cell extract
Format: biochemical
Settings: NIH-3T3 protein extract; 20 µM screen; STAT3 EMSA as negative control

Chain of E2F4 (Q8R0K9 2-410): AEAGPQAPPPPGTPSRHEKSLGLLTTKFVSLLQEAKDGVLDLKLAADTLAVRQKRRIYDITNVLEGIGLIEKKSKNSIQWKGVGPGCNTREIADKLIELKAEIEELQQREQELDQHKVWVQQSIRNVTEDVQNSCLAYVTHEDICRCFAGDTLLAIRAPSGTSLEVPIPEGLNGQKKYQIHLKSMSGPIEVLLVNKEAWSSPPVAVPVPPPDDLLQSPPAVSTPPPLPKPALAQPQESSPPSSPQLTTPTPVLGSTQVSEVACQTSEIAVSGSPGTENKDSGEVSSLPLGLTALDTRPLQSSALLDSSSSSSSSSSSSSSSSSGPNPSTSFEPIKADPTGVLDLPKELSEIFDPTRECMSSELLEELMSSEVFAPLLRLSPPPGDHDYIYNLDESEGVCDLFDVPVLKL

`CCOc1ccc(C(Nc2ccccn2)c2ccc3ccc(C)nc3c2O)cc1C` (stereo not shown) [HLM006474] was tested, and the “inhibition at 20 μM” value was “Incubation of these compounds with NIH-3T3 protein extracts identified ten compounds with potential E2F4-inhibitory activity”.
